Measured values from US20160324884A1, “TREATMENT OF DIABETES WITH PENTACYCLIC TRITERPENOID SAPONIN COMPOUNDS FROM SZECHUAN MELANDIUM ROOT” (priority 2013, published 2016).

What was measured:
Assay type in all cases: in vivo
[1] = tested on: KK^Ay mice; assay: Body weight, food and water intake in KK^Ay mice (Example 3); conditions: vs model group
Description: (§1) 60 male KK^Ay mice (12 weeks of age, License NO. SCXK (BJ) 2009-0015, Beijing Huafukang Biology Technology Co. Ltd.) and 10 normal male C57BL/6 mice (12 weeks of age, License NO. SCXK (BJ) 2009-0015, Beijing Huafukang Biology Technology Co. Ltd.) were adaptively bred for one week, and then used in the following experiment.
(§2) The animals were housed individually in wood-chip-bedded plastic cages. Germ-free and high-fat diets (Beijing Huafukang Biology Technology Co. Ltd.) were used to feed the KK^Ay mice. All the animals had free access to food and water.
(§3) 60 KK^Ay mice were adaptively bred for 1 week, and then randomly assigned into 6 groups: Model group, Compound (1) group, Compound (2) group, Compound (3) group, Compound (4) group, and metformin group, 10 mice per group. 10 normal C57BL/6 mice were used for the control group. KK^Ay mice were in a high-fat diet, and the control normal mice were in a normal control diet. The control and model groups were hypodermically injected with sterile water, the 6 medicated groups mice were subcutaneously injected with […] Wacao saponins, (Compounds (1), (2), (3) and (4)) respectively, and the positive group was administered metformin by gavage. All mice were administrated at 9 am for 2 weeks and the administration volume is 10 ml/kg BW.
(§4) The body weight, food and water intake of each mouse was measured and recorded weekly throughout the course of the experiment. At the end of the experiment, collected the blood and separated serum, fasting blood glucose, insulin levels and insulin sensitivity index (ISI) were measured or calculated in each group. Liver, skeletal muscles of mice in each group were taken and weighed for detecting glycogen levels of the hepatic and muscles after mice being killed.
(§5) Compound (1), (2), (3) and (4) were respectively dissolved into sterile water, and sterilized with filtration for Sc. to the medication groups. The metformin was dissolved into sterile water for lg. to the positive control group. Control and model groups animals were injected with sterile water (10 ml/kg BW), Sc. All the animals were treated daily at 9 am for 2 weeks (14 days).
Measurement of food and water intake: 24 hours' food and water intake were measured by gravimetry once a week. It should be paid attention to recycling leakage of small forage into the feed box to ensure the accuracy of food intake.
Determination of body weight: The body weight of mice was measured and recorded once a week.
Results are shown as means±SD. Statistical analysis data were analyzed by using SPSS 10.0 software. Data were evaluated with analysis of variance.

[2] = tested on: KK^Ay mice; assay: Blood insulin content and insulin sensitivity index (ISI) in KK^Ay mice (Example 3); conditions: serum, after 2 weeks treatment, vs model group
Description: as §3
as §4, with “Liver, skeletal muscles of mice in each group were taken and weighed for detecting glycogen levels of the hepatic and muscles after mice being killed.” left out
Blood detection: Blood glucose was measured weekly. Overnight fasting glycemia level was measured with One Touch ULTRA Glucometer for the tail blood test. At the end of the experiment, blood serum was collected for measuring levels of fasting blood glucose and insulin, and the insulin sensitivity index (ISI) was calculated. […]

[3] = tested on: KK^Ay mice; assay: Glycemia in KK^Ay mice during treatment and after withdrawal (Example 3)
Description: as §1, §3, §5
(§6) Blood detection: Blood glucose was measured weekly. Overnight fasting glycemia level was measured with One Touch ULTRA Glucometer for the tail blood test. At the end of the experiment, blood serum was collected for measuring levels of fasting blood glucose and insulin, and the insulin sensitivity index (ISI) was calculated. At the same time, hepatic tissues and skeletal muscles of mice were taken out to determine levels of hepatic and muscle glycogen by detection kits.
Termination of the experiment After administrating mice for 2 weeks (14 days), the experiment was terminated.
This experiment is to observe the anti-hyperglycemia effects of Wacao saponins on KK^Ay mice during and after the period of drug treatment, respectively.

[4] = tested on: KK^Ay mice; assay: Effects of Wacao saponins on glycemia in KK^Ay T2DM mice (Example 2)
Description: as §1, with “80” for “60”, “10 male” for “10”, “normal” for “normal male”, “pharmacological” for “following”
as §2, with “KK^Ay mice, and the standard laboratory chows were used to feed normal C57BL/6” for “KK^Ay”
80 KK^Ay mice were adaptively bred for 1 week, and then randomly assigned into 8 groups: Model group, Compound (1) group, Compound (2) group, Compound (3) group, Compound (4) group, Compound (7) group, Compound (8) group and metformin group, 10 mice per group. 10 normal C57BL/6 mice were used as the control group. KK^Ay mice were fed with the high-fat diet, and the control group was fed with the normal control diet. The control and model groups were hypodermically injected with sterile water, 6 medicated groups were hypodermically injected with 6 kinds of Wacao saponins, the Compounds (1), (2), (3), (4), (7) and (8), and the positive group (metformin group) was irrigated per oral. All groups were administrated at 9 am for 2 weeks. The administrating volume is 10 ml/kg BW and the administration dosage is shown in Table3.
All mice of the fasting tail blood glucose level were measured weekly using One Touch ULTRA Glucometer (Life Scan Johnson and Johnson, USA).
Each compound of Wacao saponins was dissolved into sterile water and sterilized with filtration for Sc. The metformin was dissolved into sterile water for lg. The control and model group mice were injected with sterile water, Sc. All the animals were treated at 9 am for 2 weeks.
Overnight fasting tail blood glucose level was measured weekly using One Touch ULTRA Glucometer and measured for twice.
Each group was administrated for 2 weeks (14 days) and then the experiment was terminated.
Results are expressed as means±SD. Statistical analysis were analyzed by using SPSS 10.0 software. Data were evaluated with analysis of variance.

[5] = tested on: KK^Ay mice; assay: Hepatic and muscle glycogen in KK^Ay mice (Example 3); conditions: 2.0 mg/kg Sc, after 2 weeks, vs model group
Description: as §3, §4, §5, §6

`COC(=O)C1OC(O[C@H]2CC[C@]3(C)[C@H]4C=CC5[C@@H]6CC(C)(C)CC[C@]6(C(=O)OC6OC(C)C(OC(=O)/C=C\c7ccc(C)cc7)C(OC(C)=O)C6OC6OC(C)C(O)C(O)C6O)[C@H](O)C[C@@]5(C)[C@]4(C)CC[C@H]3[C@]2(C)C=O)C(OC2OC(CO)C(O)C(O)C2O)C(OC2OCC(O)C(O)C2O)C1O` (stereo partly drawn) [Compound (4), sinocrassuloside IX] was tested. Which food intake ([1]; after 2 weeks, compounds 2.0 mg/kg Sc, metformin 500 mg/kg lg) did it give?
Its food intake is “except the Compound (4) group, mice in all groups showed obvious reduction in food intake”.

What about the water intake ([1]; week 1, 2.0 mg/kg Sc) of the same compound?
Its water intake is “decreased significantly (p<0.05 or p<0.01, vs. model group), except Compound (4) group in week 1”.

And the insulin level [2]?
Its insulin level is “all groups except Compound (4) increased significantly”.

What about the “anti-hyperglycemia effect compared with metformin” value ([3]; KK^Ay mice, 2.0 mg/kg Sc vs metformin 500 mg/kg lg) of the same compound?
The value was “all treatment groups except Compound (4) had stronger anti-hyperglycemia effects than that of metformin”.

What about the glycemia level ([3]; KK^Ay mice, after 1 week, compounds 2.0 mg/kg Sc, metformin 500 mg/kg lg, vs model group) of the same compound?
The glycemia level was “each treatment group, except the Compound (4) group, showed a significantly decrease”.

What about the “descending rates of blood glucose” value ([3]; T2DM mice, 2 mg/kg, two weeks after subcutaneous injection) of the same compound?
Its value is 50%.

And the “glycemia (fasting tail blood glucose), hypoglycemic activity” value ([4]; 2.0 mg/kg BW Sc daily, after 1 week, vs model group)?
Its value is “then followed by Compound (2), Compound (4), Compound (3) and Compound (7)”.

And the “anti-hyperglycemia effect, compounds compared with each other” value ([4]; 2.0 mg/kg BW Sc, 2 weeks, ranking)?
Its value is “followed by Compound (3) and (4) (cis-trans-isomers), and Compound (7)”.

What about the muscle glycogen level [5] of the same compound?
The muscle glycogen level was “weaker efficacy in raising level of muscle glycogen which had no statistical significant difference compared with that of the model group”.
